Data on seven molecules can be found in article PMC9687798, “Atypical Substrates of the Organic Cation Transporter 1” (Biomolecules, 2022).

The target of one series is T1, OCT1*3 (R61C) (Homo sapiens, UniProt O15245, R61C).
T1 construct: expressed in transfected cells
T1 sequence (O15245 1-554 R61C): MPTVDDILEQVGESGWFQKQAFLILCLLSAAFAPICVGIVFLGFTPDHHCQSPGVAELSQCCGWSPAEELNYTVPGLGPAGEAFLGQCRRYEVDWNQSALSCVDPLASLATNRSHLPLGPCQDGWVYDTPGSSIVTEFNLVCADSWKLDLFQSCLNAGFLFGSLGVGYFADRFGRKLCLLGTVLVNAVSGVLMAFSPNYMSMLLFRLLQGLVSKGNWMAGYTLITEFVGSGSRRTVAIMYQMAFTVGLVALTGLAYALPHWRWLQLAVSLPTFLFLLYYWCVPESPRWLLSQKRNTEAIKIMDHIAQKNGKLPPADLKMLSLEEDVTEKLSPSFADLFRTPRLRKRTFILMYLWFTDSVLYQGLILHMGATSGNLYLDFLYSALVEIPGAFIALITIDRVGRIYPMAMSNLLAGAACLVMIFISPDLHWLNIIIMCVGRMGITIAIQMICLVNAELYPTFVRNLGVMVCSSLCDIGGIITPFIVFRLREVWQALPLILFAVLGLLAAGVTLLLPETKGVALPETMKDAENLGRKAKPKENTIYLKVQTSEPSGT
Kind of series: Cellular uptake by HEK293 cells overexpressing OCT1*3. Particulars: for uptake of prostaglandins by OCT1*3 in comparison to wild-type: 1, 10 and 100 µM, 120 s; for uptake by OCT1*3 in comparison to OCT1*1: 1 µM substance. The format is cell-based. As for the experimental part: The transport experiments were performed using HEK293 cells that overexpress human OCT1*1 (wild-type), mutant human OCT1 D474N, variant human OCT1*2 (M420del) and OCT1*3 (R61C), wild-type human OCT2, and OCT3 after stable transfection. The wild-type cell lines of OCT1 and OCT2, as well as the variant cell lines OCT1*2 and *3, were generated using the Flp-In system (Thermo Fisher Scientific, Darmstadt, Germany) as described in previous publications. The cell line overexpressing OCT3 was a kind gift from Dr. Koepsell and Dr. Gorbulev (University of Würzburg, Germany). Cells transfected with the empty pcDNA5/FRT vector were used for the transport experiments as a control cell line. All cells were cultured approximately up to passage 30.
Forty-eight hours before the transport experiments, 600,000 cells were plated on 12-well plates pre-coated with poly-D-lysine and incubated at 37 °C with 5% CO2. The prepared 12-well plate with cells was positioned on a heating plate pre-warmed to 37 °C. After removing the medium, the cells were washed with 37 °C HBSS+ (10 mM HEPES in Hank’s balanced salt solution, pH 7.4). Then, one pre-defined concentration of a substrate was added to each well. The incubation period was stopped by adding 2 mL of 4 °C HBSS+ and removing the cells from the heating plate. The cells were washed twice with 4 °C HBSS+. For cell lysis, the cells were incubated for 15 min with 500 µL of 80% acetonitrile (LGC Standards, Wesel, Germany), which contained a respective internal standard (Table 1).
For time-dependent transport, the cells were incubated with 1 µM of the substance for 15 to 240 s to determine the linear uptake range ≥ 15 s. For concentration-dependent transport, the cells were incubated with defined substrate concentrations (0.1, 1, 10, 30, 100, 300, 600, 1000 µM) for the respective pre-defined incubation times. […]; 100 µM) and pre-defined incubation times. The uptake by a transporter was normalised to the uptake by empty vector-transfected cells. […] The results of transport experiments were normalized to the total protein concentration per well. Total protein quantification was performed using a bicinchoninic acid assay with bovine serum albumin as standard.
The ratios of cellular uptake were calculated by dividing the total uptake of transporter-overexpressing cells by the total uptake into empty vector transfected cells. The concentration-dependent cellular net uptake was used for analysis of transport kinetics by subtracting for each substrate concentration the uptake of empty vector-transfected cells from the uptake of transporter-overexpressing cells. The transport kinetic parameters Vmax and KM were determined with non-linear regression by using the Michaelis–Menten equation for net uptake data and by using the Michaelis–Menten equation extended with a linear term for total uptake data (GraphPad Prism 5.01, GraphPad software, LA Jolla, CA, USA). The intrinsic clearance Clint was expressed with the ratio of Vmax and KM.

For series [1], the target named is T2, human OCT1*1 (wild-type) (Homo sapiens, UniProt O15245).
T2 sequence (O15245 1-554): T1 sequence (O15245 1-554 R61C) with C61R
Description: Concentration-dependent uptake (transport kinetics) in HEK293 cells overexpressing OCT1 wild-type. Conditions: for OCT1 substrate classification from concentration-dependent uptake: good >5, poor 1–5, non-substrate <1 µL/mg protein/min or uptake not above empty vector; for Clint (±SEM): intrinsic clearance = ratio of Vmax and KM, OCT1 wild-type; for Vmax (±SEM): net uptake (OCT1 minus empty vector), HEK293, 0.1-1000 µM substrate, Michaelis–Menten.

For series [2], the target named is T2, human OCT1*1 (wild-type). Description: Cellular uptake ratio, OCT1-overexpressing HEK293 cells vs empty vector. It counts as cell-based. The method in brief:
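Flp-In HEK293 cells stably expressing transporter, or empty pcDNA5/FRT vector as control, incubated at 37 °C in HBSS with 10 mM HEPES, pH 7.4, with substrate. Uptake quantified by LC-MS with internal standard and normalised to total protein. Ratio = total uptake in transporter cells divided by that in empty-vector cells.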

Setting [3] is: based on ratio uptake data at 100 µM (footnote *).
The mark [4] stands for this setting: based on ratio uptake data at 1 µM.

Where a chain is given by its changes, count along the chain named. Several values for one entry are separate records, joined by “and”; a condition that tells them apart may be missing. Equal entries are not always repeated.

As to `CCCCC[C@H](O)/C=C/[C@H]1[C@H](O)CC(=O)[C@@H]1C/C=C\CCCC(=O)O` [Prostaglandin E2, prostaglandin E2], the “uptake of prostaglandins by OCT1*3 in comparison to wild-type” value at OCT1*3 (R61C) is “reduced to the level of the control cell line”. Moreover, on human OCT1*1 (wild-type) [1], the “OCT1 substrate classification from concentration-dependent uptake” value (“OCT1 substrate classification” below) is on record as “(poor) substrates of OCT1”, the “Clint (±SEM)” value was 3.50 ± 3.42 µL/mg Protein/min and the “Vmax (±SEM)” value is given as 4119 pmol/mg Protein/min. Also, the “Clint (±SEM)” value on human OCT1*1 (wild-type) [1] (listed as prostaglandin E2) turned out to be 3.5 µL/mg Protein/min. Further, the “uptake ratio of prostaglandins by OCT1 wild-type” value at human OCT1*1 (wild-type) [2] (1, 10 and 100 µM, 120 s) was “strongly increased uptake by OCT1 at higher concentrations”. Further, the OCT1 transport category entry at human OCT1*1 (wild-type) [2] (setting [3]) is on record as “+ (good substrates of OCTs when the intrinsic clearance is between 5–15 or the ratio is 2–10)”.

On to `N=C(N)c1ccc(OCCCCCOc2ccc(C(=N)N)cc2)cc1` [Pentamidine, pentamidine], for which, on OCT1*3 (R61C), the “uptake by OCT1*3 in comparison to OCT1*1” value is reported as “to a small extent”. In addition, on human OCT1*1 (wild-type) [1], the “OCT1 substrate classification” value was “poor substrate of OCT1”; the “Clint (±SEM)” value is 1.15 µL/mg Protein/min and 1.15 ± 1.75 µL/mg Protein/min; the “Vmax (±SEM)” value was found to be 143 ± 63.1 pmol/mg Protein/min. Further, at human OCT1*1 (wild-type) [2] (setting [4]), the OCT1 transport category entry is “+/− (poor transport with a Clint < 5 or ratio between 1–2 with statistical significance (p < 0.05))”.

Regarding `Nc1nc(=O)n([C@@H]2CS[C@H](CO)O2)cc1F` [Emtricitabine, emtricitabine], the “uptake by OCT1*3 in comparison to OCT1*1” value on OCT1*3 (R61C) was “reduction in uptake”. Besides, the figures for the “Clint (±SEM)” value on human OCT1*1 (wild-type) [1] and at human OCT1*1 (wild-type) [1] (listed as emtricitabine) were 6.15 ± 2.82 µL/mg Protein/min and 6.15 µL/mg Protein/min, respectively. Moreover, on human OCT1*1 (wild-type) [2] (1 µM and 100 µM substance), the “uptake ratio by OCT1 (normalised to empty vector)” value is on record as “around 4”.

`Nc1ccn([C@H]2CC[C@@H](CO)O2)c(=O)n1` [Zalcitabine, zalcitabine]: on OCT1*3 (R61C), the “uptake by OCT1*3 in comparison to OCT1*1” value is recorded as “reduction in uptake”. Moreover, at human OCT1*1 (wild-type) [1], the “OCT1 substrate classification” value was “poor transport efficiency” and the “Clint (±SEM)” value turned out to be 2.57 ± 0.65 µL/mg Protein/min. The OCT1 transport category result at human OCT1*1 (wild-type) [2] (setting [4]) was “+ (good substrates of OCTs when the intrinsic clearance is between 5–15 or the ratio is 2–10)”.

For `COc1cc(Cc2cnc(N)nc2N)cc(OC)c1OC` [Trimethoprim, trimethoprim], the “uptake by OCT1*3 in comparison to OCT1*1” value at OCT1*3 (R61C) is “reduction in uptake”. In addition, the “Vmax (±SEM)” value at human OCT1*1 (wild-type) [1] turned out to be 300 ± 16.9 pmol/mg Protein/min. Moreover, the OCT1 transport category result on human OCT1*1 (wild-type) [2] (setting [4]) was “+ (good substrates of OCTs when the intrinsic clearance is between 5–15 or the ratio is 2–10)”.

Turning to `N[C@@H](Cc1ccc(O)c(O)c1)C(=O)O` [Levodopa, levodopa], the “Clint (±SEM)” value on human OCT1*1 (wild-type) [1] turned out to be 13.8 ± 8.6 µL/mg Protein/min; on human OCT1*1 (wild-type) [1] (listed as levodopa), 13.8 µL/mg Protein/min. For the same molecule, the “Vmax (±SEM)” value at human OCT1*1 (wild-type) [1] amounted to 4993 ± 884 pmol/mg Protein/min. Besides, the OCT1 transport category on human OCT1*1 (wild-type) [2] (setting [4]) was 0 (no transport by OCT1, OCT2, and OCT3 occurred (i.e., no kinetic parameters or uptake ratio <2 without significance)).

`CCCCC[C@H](O)/C=C/[C@@H]1[C@@H](C/C=C\CCCC(=O)O)[C@@H](O)C[C@H]1O` [Prostaglandin F2α, prostaglandin F2α]: the “uptake of prostaglandins by OCT1*3 in comparison to wild-type” value on OCT1*3 (R61C) was “reduced to the level of the control cell line”. At human OCT1*1 (wild-type) [1], the “OCT1 substrate classification” value is reported as “(poor) substrates of OCT1”, the “Clint (±SEM)” value is reported as 1.40 ± 1.09 µL/mg Protein/min and the “Vmax (±SEM)” value is given as 1007 pmol/mg Protein/min. Moreover, the “Clint (±SEM)” value on human OCT1*1 (wild-type) [1] (listed as prostaglandin F2α) was 1.4 µL/mg Protein/min. Besides, at human OCT1*1 (wild-type) [2] (setting [3]), the OCT1 transport category entry is “+ (good substrates of OCTs when the intrinsic clearance is between 5–15 or the ratio is 2–10)”.
